Numbers after ± are expanded uncertainties.
Assay: xn = mol fraction of the nth substance listed
Conditions: 100 kPa, Liquid; for viscosity: Capillary tube (Ostwald / Ubbelohde) method; for speed of sound: Frequency=2 MHz, Single path-length method; for mass density: Vibrating tube method

C=COC(C)=O [vinyl acetate] + CC(C)OC(C)C
Conditions	mass density, 303.15 K [kg/m3]	mass density, 308.15 K [kg/m3]	mass density, 313.15 K [kg/m3]	speed of sound, 303.15 K [m/s]	speed of sound, 308.15 K [m/s]	speed of sound, 313.15 K [m/s]	viscosity, 303.15 K [mPa·s]	viscosity, 308.15 K [mPa·s]	viscosity, 313.15 K [mPa·s]
x1 = 0.1031	727.4 ± 1.2	722.1 ± 1.2	716.5 ± 1.2	990 ± 6	970 ± 6	948 ± 6	0.308 ± 0.014	0.293 ± 0.014	0.28 ± 0.014
x1 = 0.1977	741.4 ± 1.1	736 ± 1.1	730.4 ± 1.1	996 ± 6	976 ± 6	955 ± 6	0.313 ± 0.014	0.297 ± 0.014	0.284 ± 0.014
x1 = 0.3004	757.8 ± 1.1	752.3 ± 1.1	746.6 ± 1.1	1004 ± 6	985 ± 6	964 ± 6	0.318 ± 0.014	0.302 ± 0.014	0.288 ± 0.014
x1 = 0.4002	775 ± 1.1	769.4 ± 1.1	763.7 ± 1.1	1013 ± 6	993 ± 6	972 ± 6	0.324 ± 0.014	0.307 ± 0.014	0.294 ± 0.014
x1 = 0.5001	793.8 ± 1.1	788.1 ± 1.1	782.3 ± 1.1	1022 ± 5	1002 ± 5	982 ± 5	0.33 ± 0.014	0.313 ± 0.014	0.299 ± 0.014
x1 = 0.6027	814.8 ± 1.1	809.1 ± 1.1	803.2 ± 1.1	1032 ± 5	1012 ± 5	992 ± 5	0.338 ± 0.014	0.32 ± 0.014	0.306 ± 0.014
x1 = 0.7001	836.9 ± 1.1	831 ± 1.1	825 ± 1.1	1042 ± 5	1024 ± 5	1003 ± 5	0.347 ± 0.014	0.329 ± 0.014	0.313 ± 0.014
x1 = 0.801	861.9 ± 1.1	856 ± 1.1	849.8 ± 1.1	1056 ± 5	1038 ± 5	1016 ± 5	0.359 ± 0.014	0.34 ± 0.014	0.323 ± 0.014
x1 = 0.9014	889.5 ± 1.1	883.5 ± 1.1	877.2 ± 1.1	1072 ± 5	1053 ± 5	1032 ± 5	0.372 ± 0.014	0.353 ± 0.014	0.335 ± 0.014
x1 = 1	919.4 ± 1.1	913.5 ± 1.1	907.3 ± 1.1	1092 ± 5	1074 ± 5	1054 ± 5	0.388 ± 0.014	0.37 ± 0.014	0.352 ± 0.014

— the NIST ThermoML archive (doi:10.1016/j.jct.2019.04.018)
